Experimental data from patent US8354269B2 (priority 2008, dated 2013).
Like-named read-outs stand apart in the source and are kept apart here.

How the values were obtained:
[1] = test system: Clostridium ljungdahlii DSM13528
Procedure: (§1) High Performance Liquid Chromatography (HPLC) was used to characterize the level of substrates and products such as for acetate, ethanol, fructose, xylose and pyruvate. HPLC System Agilent 1100 Series. Mobile Phase: 0.0025N Sulphuric Acid. Flow and pressure: 0.800 mL/min. Column: Alltech IOA; Catalog #9648, 150×6.5 mm, particle size 5 μm. Temperature of column: 60° C. Detector: Refractive Index. Temperature of detector: 45° C.
(§2) Method for sample preparation: 400 μL of sample+50 μL of 0.15M ZnSO4+50 μL of 0.15M Ba(OH)2 into an Eppendorf tube. Centrifuge 10 min at 12,000 rpm, 4° C. Transfer 200 μL supernatant into an HPLC vial and inject into the HPLC instrument 5 μL.
(§3) Growth was monitored by measuring the optical density at 600 nm (OD600nm) and metabolites were detected by HPLC.

[2] = test system: Clostridium carboxidivorans DSM15243;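 further: growth tracked as optical density at 600 nm, while ethanol and acetate were quantified in culture samples by HPLC with a refractive index detector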
Procedure: as §1, §2, §3

**Q.** What does the source list for `[Cl][Ni][Cl]` [Nickel, nickel chloride]?
**A.** Ethanol ([1]; Nickel 200 μM, 0 h): 0.23 ± 0.02 g/L; OD600 nm ([1]; Nickel 200 μM, 0 h): 0.010 ± 0.001; Acetate ([1]; Nickel 200 μM, 30 h): 0.07 ± 0.07 g/L; Ethanol ([1]; Nickel 200 μM, 30 h): 0.23 ± 0.02 g/L; OD600 nm ([1]; Nickel 200 μM, 30 h): 0.057 ± 0.003; Acetate ([1]; Nickel 200 μM, 54 h): 0.24 ± 0.10 g/L; Ethanol ([1]; Nickel 200 μM, 54 h): 0.27 ± 0.03 g/L; OD600 nm ([1]; Nickel 200 μM, 54 h): 0.163 ± 0.053; Acetate ([1]; Nickel 200 μM, 102 h): 0.38 ± 0.10 g/L; Ethanol ([1]; Nickel 200 μM, 102 h): 0.57 ± 0.11 g/L; OD600 nm ([1]; Nickel 200 μM, 102 h): 0.273 ± 0.001; Acetate ([1]; Nickel 200 μM, 127 h): 0.77 ± 0.24 g/L; Ethanol ([1]; Nickel 200 μM, 127 h): 0.58 ± 0.07 g/L; OD600 nm ([1]; Nickel 200 μM, 127 h): 0.284 ± 0.010; Ethanol ([1]; Nickel 400 μM, 0 h): 0.22 ± 0.02 g/L; OD600 nm ([1]; Nickel 400 μM, 0 h): 0.011 ± 0.002; Ethanol ([1]; Nickel 400 μM, 30 h): 0.22 ± 0.01 g/L; OD600 nm ([1]; Nickel 400 μM, 30 h): 0.097 ± 0.024; Acetate ([1]; Nickel 400 μM, 54 h): 0.15 ± 0.04 g/L; Ethanol ([1]; Nickel 400 μM, 54 h): 0.21 ± 0.02 g/L; OD600 nm ([1]; Nickel 400 μM, 54 h): 0.114 ± 0.030; Acetate ([1]; Nickel 400 μM, 102 h): 0.20 ± 0.01 g/L; Ethanol ([1]; Nickel 400 μM, 102 h): 0.53 ± 0.31 g/L; OD600 nm ([1]; Nickel 400 μM, 102 h): 0.199 ± 0.103; Acetate ([1]; Nickel 400 μM, 127 h): 0.30 ± 0.19 g/L; Ethanol ([1]; Nickel 400 μM, 127 h): 0.77 ± 0.24 g/L; OD600 nm ([1]; Nickel 400 μM, 127 h): 0.310 ± 0.017; Ethanol ([1]; Nickel 700 μM, 0 h): 0.25 ± 0.01 g/L; OD600 nm ([1]; Nickel 700 μM, 0 h): 0.009 ± 0.001; Ethanol ([1]; Nickel 700 μM, 30 h): 0.24 ± 0.01 g/L; OD600 nm ([1]; Nickel 700 μM, 30 h): 0.235 ± 0.076; Acetate ([1]; Nickel 700 μM, 54 h): 0.21 ± 0.05 g/L; Ethanol ([1]; Nickel 700 μM, 54 h): 0.35 ± 0.11 g/L; OD600 nm ([1]; Nickel 700 μM, 54 h): 0.427 ± 0.182; Acetate ([1]; Nickel 700 μM, 102 h): 0.24 ± 0.03 g/L; Ethanol ([1]; Nickel 700 μM, 102 h): 0.73 ± 0.01 g/L; OD600 nm ([1]; Nickel 700 μM, 102 h): 0.579 ± 0.062; Acetate ([1]; Nickel 700 μM, 127 h): 0.34 ± 0.16 g/L; Ethanol ([1]; Nickel 700 μM, 127 h): 0.82 ± 0.03 g/L; OD600 nm ([1]; Nickel 700 μM, 127 h): 0.528 ± 0.054; Ethanol ([1]; Nickel 1000 μM, 0 h): 0.24 ± 0.01 g/L; OD600 nm ([1]; Nickel 1000 μM, 0 h): 0.011 ± 0.001; Ethanol ([1]; Nickel 1000 μM, 30 h): 0.26 ± 0.01 g/L; OD600 nm ([1]; Nickel 1000 μM, 30 h): 0.549 ± 0.049; Acetate ([1]; Nickel 1000 μM, 54 h): 0.23 ± 0.02 g/L; Ethanol ([1]; Nickel 1000 μM, 54 h): 0.42 ± 0.14 g/L; OD600 nm ([1]; Nickel 1000 μM, 54 h): 0.691 ± 0.017; Acetate ([1]; Nickel 1000 μM, 102 h): 0.31 ± 0.03 g/L; Ethanol ([1]; Nickel 1000 μM, 102 h): 0.68 ± 0.26 g/L; OD600 nm ([1]; Nickel 1000 μM, 102 h): 0.862 ± 0.324; Acetate ([1]; Nickel 1000 μM, 127 h): 0.46 ± 0.03 g/L; Ethanol ([1]; Nickel 1000 μM, 127 h): 0.98 ± 0.11 g/L; OD600 nm ([1]; Nickel 1000 μM, 127 h): 0.853 ± 0.329; Ethanol ([2]; Nickel 200 μM, 0 h): 0.18 ± 0.01 g/L; OD600 nm ([2]; Nickel 200 μM, 0 h): 0.010 ± 0.001; Acetate ([2]; Nickel 200 μM, 30 h): 0.37 ± 0.13 g/L; Ethanol ([2]; Nickel 200 μM, 30 h): 0.18 ± 0.01 g/L; OD600 nm ([2]; Nickel 200 μM, 30 h): 0.185 ± 0.052; Acetate ([2]; Nickel 200 μM, 54 h): 0.38 ± 0.02 g/L; Ethanol ([2]; Nickel 200 μM, 54 h): 0.33 ± 0.02 g/L; OD600 nm ([2]; Nickel 200 μM, 54 h): 0.239 ± 0.028; Acetate ([2]; Nickel 200 μM, 102 h): 0.43 ± 0.09 g/L; Ethanol ([2]; Nickel 200 μM, 102 h): 0.33 ± 0.19 g/L; OD600 nm ([2]; Nickel 200 μM, 102 h): 0.274 ± 0.025; Acetate ([2]; Nickel 200 μM, 127 h): 0.61 ± 0.02 g/L; Ethanol ([2]; Nickel 200 μM, 127 h): 6.69 ± 0.08 g/L; OD600 nm ([2]; Nickel 200 μM, 127 h): 0.285 ± 0.046; Ethanol ([2]; Nickel 400 μM, 0 h): 0.18 ± 0.06 g/L; OD600 nm ([2]; Nickel 400 μM, 0 h): 0.011 ± 0.002; Acetate ([2]; Nickel 400 μM, 30 h): 0.35 ± 0.02 g/L; Ethanol ([2]; Nickel 400 μM, 30 h): 0.33 ± 0.11 g/L; OD600 nm ([2]; Nickel 400 μM, 30 h): 0.271 ± 0.001; Acetate ([2]; Nickel 400 μM, 54 h): 0.41 ± 0.02 g/L; Ethanol ([2]; Nickel 400 μM, 54 h): 0.75 ± 0.01 g/L; OD600 nm ([2]; Nickel 400 μM, 54 h): 0.310 ± 0.037; Acetate ([2]; Nickel 400 μM, 102 h): 0.37 ± 0.19 g/L; Ethanol ([2]; Nickel 400 μM, 102 h): 0.86 ± 0.03 g/L; OD600 nm ([2]; Nickel 400 μM, 102 h): 0.304 ± 0.035; Acetate ([2]; Nickel 400 μM, 127 h): 0.47 ± 0.03 g/L; Ethanol ([2]; Nickel 400 μM, 127 h): 0.89 ± 0.08 g/L; OD600 nm ([2]; Nickel 400 μM, 127 h): 0.291 ± 0.026; Ethanol ([2]; Nickel 700 μM, 0 h): 0.20 ± 0.01 g/L; OD600 nm ([2]; Nickel 700 μM, 0 h): 0.010 ± 0.001; Acetate ([2]; Nickel 700 μM, 30 h): 0.34 ± 0.01 g/L; Ethanol ([2]; Nickel 700 μM, 30 h): 0.27 ± 0.01 g/L; OD600 nm ([2]; Nickel 700 μM, 30 h): 0.402 ± 0.014; Acetate ([2]; Nickel 700 μM, 54 h): 0.40 ± 0.05 g/L; Ethanol ([2]; Nickel 700 μM, 54 h): 0.84 ± 0.03 g/L; OD600 nm ([2]; Nickel 700 μM, 54 h): 0.689 ± 0.097; Acetate ([2]; Nickel 700 μM, 102 h): 0.65 ± 0.06 g/L; Ethanol ([2]; Nickel 700 μM, 102 h): 0.86 ± 0.25 g/L; OD600 nm ([2]; Nickel 700 μM, 102 h): 0.519 ± 0.078; Acetate ([2]; Nickel 700 μM, 127 h): 0.63 ± 0.32 g/L; Ethanol ([2]; Nickel 700 μM, 127 h): 1.01 ± 0.17 g/L; OD600 nm ([2]; Nickel 700 μM, 127 h): 0.584 ± 0.088; Ethanol ([2]; Nickel 1000 μM, 0 h): 0.18 ± 0.01 g/L; OD600 nm ([2]; Nickel 1000 μM, 0 h): 0.009 ± 0.001; Acetate ([2]; Nickel 1000 μM, 30 h): 0.29 ± 0.04 g/L; Ethanol ([2]; Nickel 1000 μM, 30 h): 0.44 ± 0.09 g/L; OD600 nm ([2]; Nickel 1000 μM, 30 h): 0.705 ± 0.014; Acetate ([2]; Nickel 1000 μM, 54 h): 0.39 ± 0.02 g/L; Ethanol ([2]; Nickel 1000 μM, 54 h): 0.74 ± 0.05 g/L; OD600 nm ([2]; Nickel 1000 μM, 54 h): 1.058 ± 0.006; Acetate ([2]; Nickel 1000 μM, 102 h): 0.62 ± 0.21 g/L; Ethanol ([2]; Nickel 1000 μM, 102 h): 0.88 ± 0.03 g/L; OD600 nm ([2]; Nickel 1000 μM, 102 h): 0.943 ± 0.002; Acetate ([2]; Nickel 1000 μM, 127 h): 0.47 ± 0.11 g/L; Ethanol ([2]; Nickel 1000 μM, 127 h): 1.04 ± 0.02 g/L; OD600 nm ([2]; Nickel 1000 μM, 127 h): 0.981 ± 0.088
